Laboratory results taken from patent US20100183600A1, “RAF Inhibitors and Their Uses” (ARQULE, INC., priority 2008, published 2010).

Assays:
Assay in all cases: Cell growth inhibition assay (MTS)
Assay type in all cases: cell-based
NCI-H1299 = conditions: Homo sapiens; NCI-H1299, non-small cell lung carcinoma
Outline: (§1)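 Cancer cells in DMEM with 10% FBS were seeded at 1-5×10^3 per well, cultured 24 h at 37° C., then exposed to test compounds for 72 hours. MTS plus PMS was added for 4 hr and formazan absorbance read at 492 nm; IC50 is the concentration giving 50% absorbance decrease.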

HPAF-II = conditions: Homo sapiens, pancreas
Outline: as §1

SNU-16 = conditions: Homo sapiens; SNU-16, gastric Carcinoma
Outline: as §1

A427 = conditions: Homo sapiens, A-427; A427, lung Carcinoma
Outline: as §1

HT-1080 = conditions: Homo sapiens; HT-1080, fibrosarcoma
Outline: as §1

KG-1a = conditions: Homo sapiens, AML
Outline: as §1

CAKI-1 = conditions: Homo sapiens; CAKI-1, kidney
Outline: as §1

DU145 = conditions: Homo sapiens, DU-145; DU145, prostate
Outline: as §1

SNU475 = conditions: Homo sapiens, SNU-475; SNU475, liver
Outline: as §1

SK-HEP-1 = conditions: Homo sapiens, SK-HEP1; SK-HEP-1, liver adenocarcinoma
Outline: as §1

HT29 = conditions: Homo sapiens, HT-29; HT29, colorectal carcinoma
Outline: as §1

MCF-7 = conditions: Homo sapiens, MCF7; MCF-7, breast adenocarcinoma
Outline: as §1

SK-LMS-1 = conditions: Homo sapiens; SK-LMS-1, leiomyosarcoma
Outline: as §1

LS411N = conditions: Homo sapiens, LS-411N, colorectal carcinoma
Outline: as §1

AN3CA = conditions: Homo sapiens, AN3-CA, endometrial
Outline: as §1

HEP-G2 = conditions: Homo sapiens, HepG2; HEP-G2, hepatocellular carcinoma
Outline: as §1

U937 = conditions: Homo sapiens, U-937; U937, monocyte histocytic lymphoma
Outline: as §1

NCI-H460 = conditions: Homo sapiens; NCI-H460, large cell lung carcinoma
Outline: as §1

HCT-15 = conditions: Homo sapiens; HCT-15, colon
Outline: as §1

BDCM = conditions: Homo sapiens, lymphoblast
Outline: as §1

CAKI-2 = conditions: Homo sapiens; CAKI-2, kidney
Outline: as §1

NCI-H526 = conditions: Homo sapiens; NCI-H526, lung carcinoma, variant small cell lung cancer
Outline: as §1

NCI-H358 = conditions: Homo sapiens; NCI-H358, non-small cell lung cancer, brancioalveolar carcinoma
Outline: as §1

NCI-H1993 = conditions: Homo sapiens; NCI-H1993, lung adenocarcinoma
Outline: as §1

KG-1 = conditions: Homo sapiens; KG-1, AML
Outline: as §1

HEP-3B = conditions: Homo sapiens, Hep3B, liver
Outline: as §1

HCT-116 = conditions: Homo sapiens; HCT-116, colon
Outline: as §1

CFPPAC-1 = conditions: Homo sapiens; CFPPAC-1, pancreasductal adenocarcinoma; cystic fibrosis
Outline: as §1

LS174T = conditions: Homo sapiens, colorectal carcinoma
Outline: as §1

MDAMB-231 = conditions: Homo sapiens, MDA-MB-231; MDAMB-231, breast adenocarcinoma
Outline: as §1

ASPC-1 = conditions: Homo sapiens, ASPC1; ASPC-1, pancreas
Outline: as §1

786-O = conditions: Homo sapiens, 786-0, kidney
Outline: as §1

K562 = conditions: Homo sapiens; K562, CML
Outline: as §1

SK-MEL-2 = conditions: Homo sapiens; SK-MEL-2, 72 hours
Outline: as §1

Q: What does the source list for `Cn1ccc(S(=O)(=O)N2CCC[C@@H](Nc3nccc(-c4c(-c5cccc(OCOP(=O)(O)O)c5)nc5occn45)n3)C2)n1` [Compound 19, (R)-(3-(5-(2-(1-(1-methyl-1H-pyrazol-3-ylsulfonyl)piperidin-3-ylamino)pyrimidin-4-yl)imidazo[2,1-b]oxazol-6-yl)phenoxy)methyl dihydrogen phosphate]?
A: GI50 (NCI-H1299): 6.38 µM; GI50 (HPAF-II): 5.78 µM; GI50 (SNU-16): 15.7 µM; GI50 (A427): 3.23 µM; GI50 (HT-1080): 26.8 µM; GI50 (KG-1a): 11.5 µM; GI50 (CAKI-1): 30.3 µM; GI50 (DU145): 9.62 µM; GI50 (SNU475): 29.1 µM; GI50 (SK-HEP-1): 7.22 µM; GI50 (HT29): 5.03 µM; GI50 (MCF-7): 12.5 µM; GI50 (SK-LMS-1): 15.2 µM; GI50 (LS411N): 0.31 µM; GI50 (AN3CA): 20.1 µM; GI50 (HEP-G2): 1.38 µM; GI50 (U937): 20.2 µM; GI50 (NCI-H460): 19.3 µM; GI50 (HCT-15): 23.2 µM; GI50 (BDCM): 32.7 µM; GI50 (CAKI-2): 26.2 µM; GI50 (NCI-H526): 58.9 µM; GI50 (NCI-H358): 7.5 µM; GI50 (NCI-H1993): 26.2 µM; GI50 (KG-1): 30.8 µM; GI50 (HEP-3B): 3.16 µM; GI50 (HCT-116): 6.61 µM; GI50 (CFPPAC-1): 11.9 µM; GI50 (LS174T): 5.9 µM; GI50 (MDAMB-231): 28.2 µM; GI50 (ASPC-1): 6.33 µM; GI50 (786-O): 18.2 µM; GI50 (K562): 9.86 µM

Q: With `Cn1ccc(S(=O)(=O)N2CCC[C@@H](Nc3nccc(-c4c(-c5cccc(O)c5)nc5occn45)n3)C2)n1` [Compound 17, (R)-3-(5-(2-(1-(1-methyl-1H-pyrazol-3-ylsulfonyl)piperidin-3-ylamino)pyrimidin-4-yl)imidazo[2,1-b]oxazol-6-yl)phenol] as the compound, how does the GI50 (SK-MEL-2) read?
A: 0.154 µM
